Data: article PMC3202625, “Pyruvate Kinase Triggers a Metabolic Feedback Loop that Controls Redox Metabolism in Respiring Cells” (Cell Metabolism, 2011)
pIC50, pKi: −log10 of the molar value.

How the values were obtained:
[1] = target: T1, rabbit TPI (purified from muscle) (Oryctolagus cuniculus, UniProt P00939); experiment: TPI activity assay, PEP titration; Ki by Cheng-Prusoff equation; type: biochemical
T1 construct: gene TPI1; native enzyme purified from rabbit muscle; homodimer

[2] = target: T2, human TPI (expressed in yeast) (Homo sapiens, UniProt P60174); experiment: TPI activity assay, PEP titration; type: cell-based
T2 construct: gene TPI1; human TPI expressed in transgenic yeast lacking endogenous TPI1; extract, activity normalized to total cellular protein; homodimer
T2 sequence (P60174 2-249): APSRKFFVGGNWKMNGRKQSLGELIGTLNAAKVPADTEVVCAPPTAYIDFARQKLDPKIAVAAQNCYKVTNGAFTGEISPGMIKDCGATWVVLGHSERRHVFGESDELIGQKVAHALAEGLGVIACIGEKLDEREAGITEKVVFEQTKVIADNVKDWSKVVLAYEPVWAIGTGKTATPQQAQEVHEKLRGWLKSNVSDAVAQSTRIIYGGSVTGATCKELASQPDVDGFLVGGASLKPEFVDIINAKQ
From the text: TPI activity assay, PEP titration on human TPI (expressed in yeast) | IC50 values and the inhibitory constant Ki are given in μM

[3] = target: T1, rabbit TPI (purified from muscle); experiment: TPI activity assay, PEP titration; type: biochemical
From the text: TPI activity assay, PEP titration on rabbit TPI (purified from muscle) | IC50 values and the inhibitory constant Ki are given in μM

yeast TPI (endogenous) [4] = target: T3, yeast TPI (endogenous) (Saccharomyces cerevisiae, UniProt P00942); experiment: TPI activity assay, PEP titration; Ki by Cheng-Prusoff equation; type: biochemical; conditions: substrate gly3p, yeast extract
T3 construct: gene TPI1; endogenous full-length enzyme in yeast extract, activity normalized to total cellular protein; homodimer
T3 sequence (P00942 2-248): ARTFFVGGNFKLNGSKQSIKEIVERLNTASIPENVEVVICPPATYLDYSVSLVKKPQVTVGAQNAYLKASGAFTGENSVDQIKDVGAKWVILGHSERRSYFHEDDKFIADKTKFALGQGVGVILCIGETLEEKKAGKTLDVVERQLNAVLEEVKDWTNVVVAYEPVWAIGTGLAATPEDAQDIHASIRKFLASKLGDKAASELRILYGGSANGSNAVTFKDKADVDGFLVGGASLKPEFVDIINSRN

[5] = target: T2, human TPI (expressed in yeast); experiment: as above; type: biochemical
yeast TPI (endogenous) [6] = target: T3, yeast TPI (endogenous); experiment: TPI activity assay, PEP titration; type: cell-based; conditions: substrate gly3p, yeast extract
From the text: TPI activity assay, PEP titration on yeast TPI (endogenous) | IC50 values and the inhibitory constant Ki are given in μM

yeast TPI (endogenous) [7] = target: T3, yeast TPI (endogenous); experiment: TPI activity assay, Michaelis-Menten kinetics; type: biochemical; conditions: yeast extract, no PEP

T1 sequence (P00939 2-249): as the sequence (P60174 2-249) above, with Q19K, S20N, G26T, A118S counted along it

Compound | pKi [1] | pIC50 [2] | pIC50 [3] | pKi (yeast TPI (endogenous) [4]) | pKi [5] | pIC50 (yeast TPI (endogenous) [6]) | Km (yeast TPI (endogenous) [7])
C=C(OP(=O)(O)O)C(=O)O [PEP] | 3.81 | 3.28 | 3.29 | 3.41 | 3.79 | 2.95 | –
O=C[C@H](O)COP(=O)(O)O [gly3p] | – | – | – | – | – | – | 854 µM
